ChEMBL document CHEMBL1201862, “PubChem BioAssay data set” (2004)
The source made the active and inactive calls.

Legend:
[1] = biological target: Neurotensin receptor type 1 (Homo sapiens, UniProt P30989); type: functional;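 note: Image-based confirmatory dose-response assay measuring agonist activity at NTR1; NTR1-expressing U2OS osteosarcoma cells imaged for beta-arrestin GFP spot formation; agonist potency where compounds increase beta-arrestin recruitment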
[2] = biological target: T1, Ubiquitin-conjugating enzyme E2 N (Homo sapiens, UniProt P61088); type: functional;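 note: Dose-response confirmation in a TR-FRET assay detecting UBC13-driven polyubiquitin chain formation, inhibition measured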
T1 sequence (P61088 whole entry): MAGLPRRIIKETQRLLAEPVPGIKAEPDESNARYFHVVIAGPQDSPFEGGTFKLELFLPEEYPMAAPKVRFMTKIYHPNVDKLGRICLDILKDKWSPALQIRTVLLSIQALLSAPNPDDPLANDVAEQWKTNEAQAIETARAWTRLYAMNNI

[3] = Cytotoxicity screening for potential Inhibitors of Bacterial Capsule Biogenesis. [Related pubchem assays (depositor defined):AID488970]; type: functional
[4] = system: Vibrio harveyi; assay: Quorum Sensing, LuxS, LuxPQ Measured in Microorganism System Using Plate Reader - 2035-01_Inhibitor_DoseNoFile_DryPowder_Activity. [Related pubchem assays (depositor defined):AID2106]; type: functional, organism-based
[5] = system: Vibrio harveyi; assay: inhibitors of AI-2 quorum sensing in V. harveyi, dose response, LuxS, LuxPQ, dry powder, set 2 (AID 493072); type: functional, organism-based
[6] = system: Streptococcus sp. 'group A'; assay: growth inhibition of control SK(-) GAS strain, dose response, counter-screen for streptokinase expression inhibitor project, luminescence, kanamycin, BacTiterGlo, confirmation (AID 1900); type: functional, organism-based; conditions: read-out: EC50
[7] = biological target: T2, Streptokinase A (Streptococcus pyogenes serotype M1, UniProt P10520); assay: S. pyogenes streptokinase expression inhibitors, potency, dose response, plasminogen activation absorbance, OD405 (AID 1914); type: functional, Streptococcus pyogenes M1 GAS;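 note: secreted streptokinase activity via plasminogen activation per viability signal from cell pellet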
T2 sequence (P10520 whole entry): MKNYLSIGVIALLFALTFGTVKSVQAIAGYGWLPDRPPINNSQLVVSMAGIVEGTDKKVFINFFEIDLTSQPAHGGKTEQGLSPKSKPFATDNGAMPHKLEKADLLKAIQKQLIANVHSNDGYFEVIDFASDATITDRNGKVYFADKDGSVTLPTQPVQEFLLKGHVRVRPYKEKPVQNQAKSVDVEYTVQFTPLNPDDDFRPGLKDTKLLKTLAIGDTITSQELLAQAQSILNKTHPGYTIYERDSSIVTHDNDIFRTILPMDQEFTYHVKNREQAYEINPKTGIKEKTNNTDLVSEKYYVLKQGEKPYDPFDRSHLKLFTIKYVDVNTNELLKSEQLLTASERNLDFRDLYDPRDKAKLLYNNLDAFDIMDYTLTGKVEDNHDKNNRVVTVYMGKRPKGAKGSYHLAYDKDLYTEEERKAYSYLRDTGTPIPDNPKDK

[8] = system: Streptococcus; assay: Group A Streptococcus viability loss, dose response, counter-screen for streptokinase expression inhibitor project, luminescence, BacTiterGlo (AID 1915); type: functional, organism-based;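 note: potency for reduction of bacterial viability or growth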
[9] = biological target: Tumor necrosis factor (Homo sapiens, UniProt P01375); assay: TNFa-triggered NF-kB activation inhibitors, SAR follow-up, cell-based, revised (AID 2337); type: functional
Chain of Tumor necrosis factor (P01375 whole entry, the tested form may be a part): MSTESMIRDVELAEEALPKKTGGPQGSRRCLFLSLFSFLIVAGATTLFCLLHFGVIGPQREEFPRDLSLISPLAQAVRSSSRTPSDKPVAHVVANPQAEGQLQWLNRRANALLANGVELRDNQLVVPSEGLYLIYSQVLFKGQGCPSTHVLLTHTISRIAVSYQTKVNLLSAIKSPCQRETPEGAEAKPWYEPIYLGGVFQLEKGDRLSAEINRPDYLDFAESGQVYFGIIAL

[10] = biological target: Nucleotide-binding oligomerization domain-containing protein 1 (Homo sapiens, UniProt Q9Y239); assay: NOD1 signaling inhibitors, SAR follow-up, revised (AID 2333); type: functional
Chain of Nucleotide-binding oligomerization domain-containing protein 1 (Q9Y239 whole entry, the tested form may be a part): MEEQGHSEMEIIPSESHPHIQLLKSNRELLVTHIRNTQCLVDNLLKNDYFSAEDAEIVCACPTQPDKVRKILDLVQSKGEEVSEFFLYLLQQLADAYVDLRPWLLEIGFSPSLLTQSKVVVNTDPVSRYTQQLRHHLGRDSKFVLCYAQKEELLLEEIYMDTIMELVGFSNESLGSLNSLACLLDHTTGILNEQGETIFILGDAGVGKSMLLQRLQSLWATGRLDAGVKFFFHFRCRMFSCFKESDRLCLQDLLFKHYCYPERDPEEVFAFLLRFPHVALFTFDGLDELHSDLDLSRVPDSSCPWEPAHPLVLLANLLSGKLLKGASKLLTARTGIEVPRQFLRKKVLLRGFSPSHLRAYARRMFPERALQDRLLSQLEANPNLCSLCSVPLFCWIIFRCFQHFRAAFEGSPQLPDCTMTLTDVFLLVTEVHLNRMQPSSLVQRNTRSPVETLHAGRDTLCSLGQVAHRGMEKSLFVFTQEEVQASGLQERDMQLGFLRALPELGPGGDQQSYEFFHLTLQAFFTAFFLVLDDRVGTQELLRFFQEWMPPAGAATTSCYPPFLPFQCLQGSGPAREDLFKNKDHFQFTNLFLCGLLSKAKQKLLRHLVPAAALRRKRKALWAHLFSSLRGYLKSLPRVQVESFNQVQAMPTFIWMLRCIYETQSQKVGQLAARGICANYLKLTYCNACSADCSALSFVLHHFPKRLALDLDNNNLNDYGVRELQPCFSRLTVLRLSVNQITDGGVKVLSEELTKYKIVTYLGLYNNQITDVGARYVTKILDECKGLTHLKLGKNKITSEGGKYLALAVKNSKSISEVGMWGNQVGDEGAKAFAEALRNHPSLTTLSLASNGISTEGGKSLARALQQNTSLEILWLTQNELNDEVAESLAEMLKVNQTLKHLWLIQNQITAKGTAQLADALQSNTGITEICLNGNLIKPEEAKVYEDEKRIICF

[11] = biological target: Nucleotide-binding oligomerization domain-containing protein 2 (Homo sapiens, UniProt Q9HC29); assay: PubChem AID 2334; type: functional
Chain of Nucleotide-binding oligomerization domain-containing protein 2 (Q9HC29 whole entry, the tested form may be a part): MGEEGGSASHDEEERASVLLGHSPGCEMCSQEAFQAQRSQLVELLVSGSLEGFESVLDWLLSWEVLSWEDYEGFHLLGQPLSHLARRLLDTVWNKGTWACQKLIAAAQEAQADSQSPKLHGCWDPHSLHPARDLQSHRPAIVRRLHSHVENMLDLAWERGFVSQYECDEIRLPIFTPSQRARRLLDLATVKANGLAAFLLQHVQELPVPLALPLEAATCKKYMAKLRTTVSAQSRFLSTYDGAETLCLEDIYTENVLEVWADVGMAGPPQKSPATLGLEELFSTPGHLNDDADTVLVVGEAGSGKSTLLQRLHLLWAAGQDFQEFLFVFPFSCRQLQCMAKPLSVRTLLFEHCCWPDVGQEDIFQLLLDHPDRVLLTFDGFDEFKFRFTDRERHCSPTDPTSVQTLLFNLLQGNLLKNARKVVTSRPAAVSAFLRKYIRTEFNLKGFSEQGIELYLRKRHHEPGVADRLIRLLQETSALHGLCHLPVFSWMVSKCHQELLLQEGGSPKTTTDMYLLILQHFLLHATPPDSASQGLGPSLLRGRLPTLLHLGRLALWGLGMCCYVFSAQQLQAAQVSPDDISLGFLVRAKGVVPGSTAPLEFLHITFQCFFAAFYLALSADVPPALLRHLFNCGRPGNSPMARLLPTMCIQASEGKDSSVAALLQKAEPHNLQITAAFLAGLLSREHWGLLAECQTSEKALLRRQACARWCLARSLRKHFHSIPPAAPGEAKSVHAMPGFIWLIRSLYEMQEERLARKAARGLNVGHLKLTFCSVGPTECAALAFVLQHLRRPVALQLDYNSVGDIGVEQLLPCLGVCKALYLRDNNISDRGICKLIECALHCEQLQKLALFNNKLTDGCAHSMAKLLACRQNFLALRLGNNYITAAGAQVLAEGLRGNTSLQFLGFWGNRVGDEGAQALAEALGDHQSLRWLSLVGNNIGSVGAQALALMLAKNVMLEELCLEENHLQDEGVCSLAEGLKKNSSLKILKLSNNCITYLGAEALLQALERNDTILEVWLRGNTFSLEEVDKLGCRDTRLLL

[12] = system: H9c2; assay: cells; type: functional, cell-based; conditions: Rattus norvegicus, H9c2, Myocardium;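 note: confirmatory concentration-response retest of ultra-high-throughput screening hits for modulation of myocardial damage; cell death induced by hydrogen peroxide oxidative stress; compound pretreatment for 60 min then peroxide exposure for 2 h; potency is for protecting the cells against peroxide damage rather than for killing them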
[13] = system: HEK293; assay: cells; conditions: Homo sapiens
[14] = biological target: Cyclin-dependent kinase 5/CDK5 activator 1 (Homo sapiens, UniProt Q00535); assay: CDK5/p35 kinase inhibitors, dose response, biochemical, cherry-picked samples, set 2 (AID 504545)
[15] = system: HEK293; assay: cells; type: functional, cell-based; conditions: Homo sapiens
[16] = biological target: T3, Nuclear receptor subfamily 0 group B member 1 (Homo sapiens, UniProt P51843); assay: Luminescence-based cell-based high throughput dose response assay for inhibitors of the orphan nuclear receptor subfamily 0, group B, member 1 (DAX1; NR0B1). [Related pubchem assays (depositor defined):AID504766, AID504790]; type: functional
T3 sequence (P51843 whole entry): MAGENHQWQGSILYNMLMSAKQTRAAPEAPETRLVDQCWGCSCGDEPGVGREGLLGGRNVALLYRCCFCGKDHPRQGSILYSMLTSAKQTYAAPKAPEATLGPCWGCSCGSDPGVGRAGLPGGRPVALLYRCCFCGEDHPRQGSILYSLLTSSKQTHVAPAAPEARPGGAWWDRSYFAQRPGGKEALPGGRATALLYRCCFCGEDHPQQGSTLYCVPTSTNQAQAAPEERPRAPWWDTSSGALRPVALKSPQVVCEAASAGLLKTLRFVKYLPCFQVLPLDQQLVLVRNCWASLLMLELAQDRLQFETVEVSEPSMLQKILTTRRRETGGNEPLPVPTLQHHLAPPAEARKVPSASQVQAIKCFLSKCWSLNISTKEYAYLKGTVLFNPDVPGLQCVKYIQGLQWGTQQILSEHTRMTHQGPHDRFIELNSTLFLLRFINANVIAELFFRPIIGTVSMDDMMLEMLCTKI

[17] = biological target: Dual specificity tyrosine-phosphorylation-regulated kinase 1A (Rattus norvegicus, UniProt Q63470); type: biochemical, Homo sapiens
[18] = biological target: Mu-type opioid receptor (Homo sapiens, UniProt P35372); type: functional, cell-based;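 note: U2OS cells with beta-arrestin recruitment to OPRM1 by beta-gal complementation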
[19] = biological target: 5-hydroxytryptamine receptor 2A (Mus musculus, UniProt P35363); type: functional, cell-based;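 note: CHO-K1 cells with tagged receptor and beta-arrestin; agonist potency measured as compound-induced activation of the receptor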
[20] = biological target: SWI/SNF-related matrix-associated actin-dependent regulator of chromatin subfamily A member 2 (Homo sapiens, UniProt P51531); assay: Luminescence-based cell-based high throughput dose response assay to identify activators of the function of SWI/SNF related, matrix associated, actin dependent regulator of chromatin, subfamily a, member 2 (SMARCA2, BRM).; type: functional
[21] = Counterscreen for activators of the function of SWI/SNF related, matrix associated, actin dependent regulator of chromatin, subfamily a, member 2 (SMARCA2, BRM): Luminescence-based cell-based high throughput dose response assay to identify non-selective compounds using the VP16 reporter assay.; type: functional
[22] = biological target: T4, Oxysterols receptor LXR-beta (Homo sapiens, UniProt P55055); type: functional, cell-based;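 note: agonist activity at LXR measured by a cell-based luminescence readout across a dose range, run as a counterscreen for daf-12 agonists; HEK293 cells with Gal4-LXR fusion and GAL4-driven luciferase reporter; potency for activation of Gal4-LXR reporter so compounds are agonists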
T4 sequence (P55055 whole entry): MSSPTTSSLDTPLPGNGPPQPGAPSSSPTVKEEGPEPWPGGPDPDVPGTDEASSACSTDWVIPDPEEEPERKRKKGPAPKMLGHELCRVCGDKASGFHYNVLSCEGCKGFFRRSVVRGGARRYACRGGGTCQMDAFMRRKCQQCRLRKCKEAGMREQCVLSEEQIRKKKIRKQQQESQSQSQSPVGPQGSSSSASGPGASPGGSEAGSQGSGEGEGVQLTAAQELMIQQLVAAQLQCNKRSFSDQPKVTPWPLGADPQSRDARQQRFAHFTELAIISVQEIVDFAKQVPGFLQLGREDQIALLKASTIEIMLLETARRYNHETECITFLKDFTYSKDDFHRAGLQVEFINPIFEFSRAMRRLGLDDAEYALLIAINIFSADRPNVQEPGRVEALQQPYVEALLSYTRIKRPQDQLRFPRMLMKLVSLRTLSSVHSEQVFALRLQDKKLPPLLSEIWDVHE

[23] = biological target: Cystic fibrosis transmembrane conductance regulator/Golgi-associated PDZ and coiled-coil motif-containing protein (Homo sapiens, UniProt P13569+Q9HD26); assay: CAL PDZ peptide-binding inhibitors, dose response, biochemical, fluorescence polarization, Cerulean-tagged CAL PDZ, cherry-picks (AID 504773)
Chain of Cystic fibrosis transmembrane conductance regulator/Golgi-associated PDZ and coiled-coil motif-containing protein (P13569 whole entry, other chains not shown, the tested form may be a part): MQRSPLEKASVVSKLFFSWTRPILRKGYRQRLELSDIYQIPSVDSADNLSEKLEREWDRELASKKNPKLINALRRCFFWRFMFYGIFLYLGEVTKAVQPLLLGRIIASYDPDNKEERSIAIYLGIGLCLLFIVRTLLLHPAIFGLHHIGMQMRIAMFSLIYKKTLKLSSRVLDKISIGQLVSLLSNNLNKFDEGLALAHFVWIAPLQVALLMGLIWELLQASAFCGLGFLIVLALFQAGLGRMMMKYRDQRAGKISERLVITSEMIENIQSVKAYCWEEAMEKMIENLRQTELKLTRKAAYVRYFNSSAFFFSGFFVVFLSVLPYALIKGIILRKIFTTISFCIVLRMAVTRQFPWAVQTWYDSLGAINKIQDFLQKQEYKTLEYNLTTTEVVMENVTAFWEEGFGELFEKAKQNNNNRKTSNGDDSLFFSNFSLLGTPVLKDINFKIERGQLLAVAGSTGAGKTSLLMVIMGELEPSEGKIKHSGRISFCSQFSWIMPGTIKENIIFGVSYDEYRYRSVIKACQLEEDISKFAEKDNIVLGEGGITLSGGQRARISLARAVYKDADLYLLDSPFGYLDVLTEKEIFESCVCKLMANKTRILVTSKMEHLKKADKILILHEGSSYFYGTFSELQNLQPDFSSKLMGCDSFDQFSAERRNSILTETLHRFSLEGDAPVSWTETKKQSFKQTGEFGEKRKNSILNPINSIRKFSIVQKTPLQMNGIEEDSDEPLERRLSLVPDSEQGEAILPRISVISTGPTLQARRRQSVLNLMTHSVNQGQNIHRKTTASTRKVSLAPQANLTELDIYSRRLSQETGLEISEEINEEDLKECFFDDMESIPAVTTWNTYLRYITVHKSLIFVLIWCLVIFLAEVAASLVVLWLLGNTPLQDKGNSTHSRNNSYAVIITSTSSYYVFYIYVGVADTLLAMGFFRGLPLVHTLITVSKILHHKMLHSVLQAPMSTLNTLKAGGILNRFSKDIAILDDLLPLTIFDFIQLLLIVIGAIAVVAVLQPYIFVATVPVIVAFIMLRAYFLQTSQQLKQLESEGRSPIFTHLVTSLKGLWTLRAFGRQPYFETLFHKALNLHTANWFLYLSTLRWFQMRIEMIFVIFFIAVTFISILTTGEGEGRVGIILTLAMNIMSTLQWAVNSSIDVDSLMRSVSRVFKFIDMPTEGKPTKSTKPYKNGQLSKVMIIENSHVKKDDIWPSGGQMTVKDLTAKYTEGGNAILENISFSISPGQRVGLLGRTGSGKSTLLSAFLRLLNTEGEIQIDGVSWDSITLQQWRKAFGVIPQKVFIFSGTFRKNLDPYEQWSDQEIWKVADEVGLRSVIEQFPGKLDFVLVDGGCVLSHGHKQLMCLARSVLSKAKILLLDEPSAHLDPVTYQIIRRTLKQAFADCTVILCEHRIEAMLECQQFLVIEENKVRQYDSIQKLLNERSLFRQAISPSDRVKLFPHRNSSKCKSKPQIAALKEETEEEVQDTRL

[24] = biological target: NACHT, LRR and PYD domains-containing protein 3 (Homo sapiens, UniProt Q96P20); assay: NALP3 inhibitors in yeast, dose response, luminescent (AID 488799); type: functional
[25] = system: INS1; assay: beta cell apoptosis inhibitors, cytokine rescue, dose response, luminescence, retest (AID 449756); type: functional, cell-based; conditions: Rattus norvegicus;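 note: cell death triggered by IL-1 beta plus TNF-alpha plus IFN-gamma mixture; protective hits raise ATP signal compared with cytokine alone wells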
[26] = Concentration-dependent survival of SW480 colon cancer line, luminescence detection with CellTiter-Glo, half-maximal inhibitory concentration (AID 1117338); type: functional
[27] = RKO cell viability reduction, dose response, CellTiter-Glo luminescence (AID 1117322); type: functional
[28] = cytotoxicity toward HCT116 cells – cell-based, CellTiter-Glo luminescence, IC50, dose response (AID 1117332); type: functional; conditions: HCT-116
[29] = SNU-C1 cell viability reduction, dose response, CellTiter-Glo luminescence (AID 1117323); type: functional, cell-based
[30] = cytotoxicity toward Colo320 cells – cell-based, CellTiter-Glo luminescence, IC50, dose response (AID 1117334); type: functional; conditions: COLO 320
[31] = cytotoxicity toward HT-29 cells – cell-based, CellTiter-Glo luminescence, IC50, dose response (AID 1117330); type: functional
[32] = CellTiter-Glo luminescent dose response of DLD-1 viability loss (AID 1117352); type: functional
[33] = HCT116 cell viability decrease, GSK3B pretreatment – CellTiter-Glo, IC50, dose response (AID 1117339); type: functional; conditions: HCT-116
[34] = biological target: Aryl hydrocarbon receptor (Homo sapiens, UniProt P35869); conditions: Potency;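 note: confirmatory quantitative high-throughput screen measuring activation of the AhR signaling pathway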
Chain of Aryl hydrocarbon receptor (P35869 whole entry): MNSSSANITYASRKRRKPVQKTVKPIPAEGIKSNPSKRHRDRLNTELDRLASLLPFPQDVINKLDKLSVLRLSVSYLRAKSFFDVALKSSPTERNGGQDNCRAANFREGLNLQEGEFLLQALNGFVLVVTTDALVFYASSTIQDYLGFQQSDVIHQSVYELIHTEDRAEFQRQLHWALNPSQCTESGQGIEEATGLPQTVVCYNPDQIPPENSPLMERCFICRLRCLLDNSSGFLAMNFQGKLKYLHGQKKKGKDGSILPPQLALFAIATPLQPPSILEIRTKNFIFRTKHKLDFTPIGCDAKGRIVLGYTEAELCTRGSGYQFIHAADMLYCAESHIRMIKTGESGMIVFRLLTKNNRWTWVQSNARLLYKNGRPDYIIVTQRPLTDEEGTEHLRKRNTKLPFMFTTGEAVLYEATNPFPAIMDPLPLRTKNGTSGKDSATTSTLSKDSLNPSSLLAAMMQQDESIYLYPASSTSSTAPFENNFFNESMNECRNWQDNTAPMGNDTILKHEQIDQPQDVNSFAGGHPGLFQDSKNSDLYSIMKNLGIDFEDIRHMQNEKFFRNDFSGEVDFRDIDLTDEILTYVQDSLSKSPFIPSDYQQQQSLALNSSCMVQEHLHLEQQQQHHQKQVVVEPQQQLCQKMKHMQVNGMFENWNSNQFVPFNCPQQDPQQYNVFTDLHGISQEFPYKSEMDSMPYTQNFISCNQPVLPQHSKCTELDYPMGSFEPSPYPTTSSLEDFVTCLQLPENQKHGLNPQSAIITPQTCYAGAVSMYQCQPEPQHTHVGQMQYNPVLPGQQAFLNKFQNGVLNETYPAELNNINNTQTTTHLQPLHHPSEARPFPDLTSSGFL

Chain of Neurotensin receptor type 1 (P30989 whole entry): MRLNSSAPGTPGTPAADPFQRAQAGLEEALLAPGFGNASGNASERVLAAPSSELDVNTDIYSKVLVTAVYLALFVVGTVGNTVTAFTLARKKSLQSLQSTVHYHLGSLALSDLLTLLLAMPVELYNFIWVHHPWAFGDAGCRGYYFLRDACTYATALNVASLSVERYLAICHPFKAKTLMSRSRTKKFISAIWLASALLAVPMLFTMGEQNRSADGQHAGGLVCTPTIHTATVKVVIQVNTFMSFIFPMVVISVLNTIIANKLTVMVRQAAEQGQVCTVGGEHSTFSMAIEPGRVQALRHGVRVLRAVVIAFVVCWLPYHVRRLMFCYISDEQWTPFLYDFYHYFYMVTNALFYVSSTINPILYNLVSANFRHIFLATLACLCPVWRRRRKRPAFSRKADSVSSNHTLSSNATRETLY

O=C(/C=C/c1ccccc1F)c1cccc([N+](=O)[O-])c1
EC50 [1]: 15.1 µM (active)

Cc1cc(C)c(NC(=O)C[N+](C)(C)CC(O)COc2cccc3ccccc23)c(C)c1 (stereo not given)
IC50 [2]: > 20 µM (inactive) | CC50 [3]: 15.6 µM (active)

Cc1cccc(NS(=O)(=O)c2ccc(Oc3ccccc3)cc2)n1
AC50 [4]: 2.4 µM (active) | AC50 [5]: 4.9 µM (active) | AC50 ([5]; Vibrio harveyi): 5.99 µM (active)

O=C(Nc1nc2ccccc2n1Cc1ccccc1)c1ccco1
EC50 [6]: 3.48 µM (active) | EC50 [7]: > 150 µM (not active) | EC50 [8]: > 150 µM (not active) | IC50 [9]: > 20 µM (inactive) | IC50 [10]: > 20 µM (inactive) | IC50 [11]: > 20 µM (inactive) | IC50 [12]: > 79 µM (inactive) | IC50 [13]: > 20 µM (inactive)

N#Cc1c(Br)n(C2OC(CO)C(O)C2O)c2ncnc(N)c12 (stereo not given)
AC50 [14]: 184 µM (active) | IC50 [15]: > 67.5 µM (inactive) | IC50 [16]: > 67.5 µM (inactive) | AC50 [17]: 2.09 µM (active) | EC50 [18]: 92.4 µM (inactive) | EC50 [19]: 0.482 µM (active) | EC50 [20]: > 91.1 µM (inactive) | EC50 [21]: > 91.1 µM (inactive) | EC50 [22]: > 67.5 µM (inactive)

COC(=O)[C@H]1[C@H]2C[C@@H]3c4[nH]c5cc(OC)ccc5c4CCN3C[C@H]2C[C@@H](OC(=O)/C=C/c2cc(OC)c(OC)c(OC)c2)[C@@H]1OC [RESCINNAMINE]
AC50 [23]: 142 µM (active)

O=C(Nc1ccc(Cl)cc1)Nc1ccc(Cl)c(Cl)c1 [TRICLOCARBAN]
IC50 [24]: 1.49 µM (active) | AC50 [25]: 3.69 µM (active) | IC50 [26]: 0.897 µM (active) | IC50 [27]: 0.288 µM (active) | IC50 [28]: 0.228 µM (active) | IC50 [29]: 0.335 µM (active) | IC50 [30]: 0.362 µM (active) | IC50 [31]: 0.383 µM (active) | IC50 [32]: 0.323 µM (active) | IC50 [33]: 0.362 µM (active) | AC50 [34]: 14.1 µM (inconclusive)
